Source: PubChem BioAssay AID1963838 (Molecular Pharmacology Branch, DTP, NCI, 2024)

System: 855422-203-R-J1-PDC complex spheroid viability
Test: Anticancer human tumor 855422-203-R-J1-PDC patient-derived bladder carcinoma cell line growth inhibition [POLQ]
Conditions: for IC50: curve of first compound; for viability, T/C: stronger effect = lower value
Method in brief: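 PDC + HUVEC + MSC complex spheroids; POLQ inhibitors ± partner drugs; top conc. at/near clinical Cmax, else 10 microM (SN-38 1 microM), half-log dilutions; 37 degrees C, 5% CO2.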

[1] = second compound 0.0316 µM, first compound 0.0316 µM
[2] = second compound 0.0316 µM, first compound 0.1 µM
[3] = second compound 0.0316 µM, first compound 0.316 µM
[4] = second compound 0.0316 µM, first compound 1 µM
[5] = second compound 0.0316 µM, first compound 3.16 µM
[6] = second compound 0.0316 µM, first compound 10 µM
[7] = second compound 0.1 µM, first compound 0.0316 µM
[8] = second compound 0.1 µM, first compound 0.1 µM
[9] = second compound 0.1 µM, first compound 0.316 µM
[10] = second compound 0.1 µM, first compound 1 µM
[11] = second compound 0.1 µM, first compound 3.16 µM
[12] = second compound 0.1 µM, first compound 10 µM
[13] = second compound 0.316 µM, first compound 0.0316 µM
[14] = second compound 0.316 µM, first compound 0.1 µM
[15] = second compound 0.316 µM, first compound 0.316 µM
[16] = second compound 0.316 µM, first compound 1 µM
[17] = second compound 0.316 µM, first compound 3.16 µM
[18] = second compound 0.316 µM, first compound 10 µM
[19] = second compound 1 µM, first compound 0.0316 µM
[20] = second compound 1 µM, first compound 0.1 µM
[21] = second compound 1 µM, first compound 0.316 µM
[22] = second compound 1 µM, first compound 1 µM
[23] = second compound 1 µM, first compound 3.16 µM
[24] = second compound 1 µM, first compound 10 µM
[25] = second compound 3.16 µM, first compound 0.0316 µM
[26] = second compound 3.16 µM, first compound 0.1 µM
[27] = second compound 3.16 µM, first compound 0.316 µM
[28] = second compound 3.16 µM, first compound 1 µM
[29] = second compound 3.16 µM, first compound 3.16 µM
[30] = second compound 3.16 µM, first compound 10 µM
[31] = second compound 10 µM, first compound 0.0316 µM
[32] = second compound 10 µM, first compound 0.1 µM
[33] = second compound 10 µM, first compound 0.316 µM
[34] = second compound 10 µM, first compound 1 µM
[35] = second compound 10 µM, first compound 3.16 µM
[36] = second compound 10 µM, first compound 10 µM
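Note: spheroids exposed to compounds for seven days before readout.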

Compound `CC1COCCN1c1cc(C2(O)CC3CCC(C2)O3)c2cnn(-c3ccn[nH]3)c2n1` (stereo unspecified) + Cc1cccc(N(C)C(=O)C2C(O)CCN2c2nc(C)cc(C(F)(F)F)c2C#N)c1 has an IC50 (second compound 0.0316 µM) of 93.8 nM, an IC50 (second compound 0.1 µM) of 90.1 nM and an IC50 (second compound 0.316 µM) of 88.2 nM. For the same compound, the IC50 (second compound 1 µM) was 89.8 nM, the IC50 (second compound 3.16 µM) was 91.1 nM and the IC50 (second compound 10 µM) was 83.4 nM. The viability, T/C [1] was 109%, the viability, T/C [2] was 46.7% and the viability, T/C [3] was 14.1%. For the same compound, the viability, T/C [4] was 9.62%, the viability, T/C [5] was 6.47% and the viability, T/C [6] was 3.79%. For the same compound, the viability, T/C [7] was 91.8%, the viability, T/C [8] was 45.9% and the viability, T/C [9] was 12.6%. The viability, T/C [10] was 9%, the viability, T/C [11] was 6.6% and the viability, T/C [12] was 4.11%. For the same compound, the viability, T/C [13] was 104%, the viability, T/C [14] was 43.5% and the viability, T/C [15] was 16.4%. It also gave a viability, T/C [16] of 8.37%, a viability, T/C [17] of 6.11% and a viability, T/C [18] of 3.68%. The viability, T/C [19] was 95%, the viability, T/C [20] was 45.5% and the viability, T/C [21] was 13.2%. For the same compound, the viability, T/C [22] was 9.4%, the viability, T/C [23] was 5.77% and the viability, T/C [24] was 3.51%. For the same compound, the viability, T/C [25] was 97.5%, the viability, T/C [26] was 45.8% and the viability, T/C [27] was 10.4%. For the same compound, the viability, T/C [28] was 9.18%, the viability, T/C [29] was 6.79% and the viability, T/C [30] was 4.13%. For the same compound, the viability, T/C [31] was 83.4%, the viability, T/C [32] was 44% and the viability, T/C [33] was 15.1%. For the same compound, the viability, T/C [34] was 9.77%, the viability, T/C [35] was 7.49% and the viability, T/C [36] was 2.55%.

`O=C(Nc1ccc(O)c(NS(=O)(=O)c2ccc(F)cc2)c1)c1ccc(-c2ccccc2)cc1` + Cc1cccc(N(C)C(=O)C2C(O)CCN2c2nc(C)cc(C(F)(F)F)c2C#N)c1 was tested, and the IC50 (second compound 0.0316 µM) was greater than 10000 nM, the IC50 (second compound 0.1 µM) was greater than 10000 nM and the IC50 (second compound 0.316 µM) was greater than 10000 nM. It also gave an IC50 (second compound 1 µM) greater than 10000 nM, an IC50 (second compound 3.16 µM) greater than 10000 nM and an IC50 (second compound 10 µM) of 7890 nM. The viability, T/C [1] was 113%, the viability, T/C [2] was 107% and the viability, T/C [3] was 95%. It also gave a viability, T/C [4] of 85.3%, a viability, T/C [5] of 106% and a viability, T/C [6] of 66.2%. For the same compound, the viability, T/C [7] was 110%, the viability, T/C [8] was 122% and the viability, T/C [9] was 98.5%. The viability, T/C [10] was 92.8%, the viability, T/C [11] was 109% and the viability, T/C [12] was 58.4%. For the same compound, the viability, T/C [13] was 99%, the viability, T/C [14] was 104% and the viability, T/C [15] was 108%. The viability, T/C [16] was 111%, the viability, T/C [17] was 128% and the viability, T/C [18] was 60.8%. It also gave a viability, T/C [19] of 97.5%, a viability, T/C [20] of 123% and a viability, T/C [21] of 91.6%. For the same compound, the viability, T/C [22] was 105%, the viability, T/C [23] was 115% and the viability, T/C [24] was 59.7%. For the same compound, the viability, T/C [25] was 88.6%, the viability, T/C [26] was 124% and the viability, T/C [27] was 125%. The viability, T/C [28] was 105%, the viability, T/C [29] was 120% and the viability, T/C [30] was 52.7%. For the same compound, the viability, T/C [31] was 125%, the viability, T/C [32] was 110% and the viability, T/C [33] was 125%. The viability, T/C [34] was 106%, the viability, T/C [35] was 111% and the viability, T/C [36] was 34.1%.

With `COc1cccc2c1C(=O)c1c(O)c3c(c(O)c1C2=O)CC(O)(C(=O)CO)CC3OC1CC(N)C(O)C(C)O1` (stereo unspecified) + Nc1ccc(C#CCN(C(=O)Cc2ncc(C(F)(F)F)cc2C(F)(F)F)c2ccc(F)cc2)nn1 the IC50 (second compound 0.0316 µM) was less than 31.6 nM, the IC50 (second compound 0.1 µM) was less than 31.6 nM and the IC50 (second compound 0.316 µM) was less than 31.6 nM. It also gave an IC50 (second compound 1 µM) of less than 31.6 nM, an IC50 (second compound 3.16 µM) of less than 31.6 nM and an IC50 (second compound 10 µM) of less than 31.6 nM. The viability, T/C [1] was 26.2%, the viability, T/C [2] was 12.8% and the viability, T/C [3] was 3.75%. The viability, T/C [4] was 0.9%, the viability, T/C [5] was 1.51% and the viability, T/C [6] was 4.81%. For the same compound, the viability, T/C [7] was 25.7%, the viability, T/C [8] was 12.2% and the viability, T/C [9] was 3.22%. It also gave a viability, T/C [10] of 0.93%, a viability, T/C [11] of 1.37% and a viability, T/C [12] of 3.69%. It also gave a viability, T/C [13] of 26%, a viability, T/C [14] of 12.8% and a viability, T/C [15] of 2.51%. It also gave a viability, T/C [16] of 0.82%, a viability, T/C [17] of 1.39% and a viability, T/C [18] of 5.31%. The viability, T/C [19] was 24.3%, the viability, T/C [20] was 11.5% and the viability, T/C [21] was 4.7%. It also gave a viability, T/C [22] of 0.92%, a viability, T/C [23] of 1.13% and a viability, T/C [24] of 6.67%. The viability, T/C [25] was 26.3%, the viability, T/C [26] was 12.7% and the viability, T/C [27] was 4.52%. The viability, T/C [28] was 1.14%, the viability, T/C [29] was 1.38% and the viability, T/C [30] was 4.89%. The viability, T/C [31] was 21.4%, the viability, T/C [32] was 12.1% and the viability, T/C [33] was 2.85%. For the same compound, the viability, T/C [34] was 2.62%, the viability, T/C [35] was 1.74% and the viability, T/C [36] was 5.86%.
